Data taken from PubChem BioAssay (NCI).
“And” between values parts separate entries of the source, which are not always exact repeats. Identical values can stand only once.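 96-well plates; 48 h exposure; 5 concentrations. Endpoints by linear interpolation between flanking doses. Not reached: highest tested concentration assigned. Abbreviation: GI50, concentration required for 50% inhibition of growth. At the TGI there is no net growth.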

Key:
Experiment in all cases: NCI tumour cell line growth inhibition, 48 h
[1] = tested on: SK-OV-3 ovarian
[2] = tested on: KM12 colon
[3] = tested on: DU-145 prostate
[4] = tested on: MOLT-4 leukemia
[5] = tested on: SK-MEL-2 melanoma
[6] = tested on: CAKI-1 renal
[7] = tested on: BT-549 breast
[8] = tested on: NCI-H460 lung
[9] = tested on: LOX IMVI melanoma
[10] = tested on: NCI-H522 lung

Structure (SMILES): CNc1ccc(C(=O)CC(O)CCC(C)C2OC(=O)CC(O)CC(=O)CC(O)CC(O)CC(O)CC(O)CC3(O)CC(O)C(C(=O)NCCc4ccccn4)C(CC(OC4OC(C)C(O)C(N)C4O)/C=C/C=C/C=C/C=C\C=C/C=C/C=C/C2C)O3)cc1 (stereo not drawn)
- GI50 [1]: 2320 nM
- TGI [1]: > 50 µM
- GI50 [2]: 3600 nM
- TGI [2]: > 18.9 µM
- GI50 [3]: 183 nM
- TGI [3]: 0.672 µM
- GI50 [4]: 207 nM
- TGI [4]: > 50 µM
- TGI [5]: > 50 µM
- GI50 [6]: 165 nM
- TGI [6]: 0.633 µM
- GI50 [7]: 1270 nM
- TGI [7]: > 50 µM
- GI50 [8]: 238 nM
- TGI [8]: > 17.8 µM
- GI50 [9]: 2110 nM
- TGI [9]: > 50 µM
- GI50 [10]: 4.21 µM
- TGI [10]: > 50 µM

Structure (SMILES): O=C(NCc1cccs1)OC1CC2CCC1C2 (stereo not drawn)
- TGI [1]: > 100 µM
- TGI [2]: > 100 µM
- TGI [3]: > 100 µM
- TGI [4]: > 100 µM
- TGI [5]: > 100 µM
- TGI [6]: > 100 µM
- TGI [7]: > 100 µM
- TGI [8]: > 100 µM
- TGI [9]: > 100 µM
- TGI [10]: > 100 µM

Structure (SMILES): COc1ccc(OC)c(-c2cc(C(=O)O)c3cc4ccccc4cc3n2)c1
- TGI [1]: > 100 µM
- TGI [2]: > 100 µM
- TGI [3]: > 100 µM
- TGI [4]: > 100 µM
- TGI [5]: > 100 µM
- TGI [6]: > 100 µM
- TGI [7]: > 100 µM
- TGI [8]: > 100 µM
- TGI [9]: > 100 µM
- TGI [10]: > 100 µM

Structure (SMILES): C(=C\c1nc2ccccc2s1)/c1ccc(N2CCOCC2)s1
- GI50 [1]: 90700 nM
- TGI [1]: > 100 µM
- GI50 [2]: 93800 nM
- TGI [2]: > 100 µM
- GI50 [3]: 48800 nM
- TGI [3]: > 100 µM
- GI50 [4]: > 100000 nM
- TGI [4]: > 100 µM
- GI50 [5]: 63800 nM
- TGI [5]: > 100 µM
- GI50 [6]: > 100000 nM
- TGI [6]: > 100 µM
- GI50 [7]: 34600 nM
- TGI [7]: > 100 µM
- GI50 [8]: 51300 nM
- TGI [8]: > 100 µM
- GI50 [9]: 38400 nM
- TGI [9]: > 100 µM
- GI50 [10]: 49.2 µM
- TGI [10]: > 100 µM

Structure (SMILES): CN1CCN(CCCN2c3ccccc3Sc3ccc(C(F)(F)F)cc32)CC1
- GI50 [1]: 1920 nM
- TGI [1]: 4.15 µM and 27.7 µM and 28.2 µM
- GI50 [2]: 1850 nM
- TGI [2]: 3.48 µM and 10.7 µM and 11.4 µM
- GI50 [3]: 2390 nM
- TGI [3]: 5.48 µM and 23.3 µM and 30.1 µM
- GI50 [4]: 2350 nM
- TGI [4]: 4.92 µM and 10.8 µM and 20.6 µM
- GI50 [5]: 2340 nM
- TGI [5]: 4.26 µM and 15.4 µM and 15.6 µM
- GI50 [6]: 1550 nM
- TGI [6]: 3.36 µM and 22.4 µM and 23 µM
- GI50 [7]: 3710 nM
- TGI [7]: 14.5 µM and 29.3 µM and 28.1 µM
- GI50 [8]: 1990 nM
- TGI [8]: 4.15 µM and 5.21 µM and 12.1 µM
- GI50 [9]: 1590 nM
- TGI [9]: 3.28 µM and 8.79 µM and 11.2 µM
- GI50 [10]: 1.87 µM and 4.05 µM and 13 µM
- TGI [10]: 3.5 µM and 17.8 µM and 26.1 µM

Structure (SMILES): N#C/C(=C\c1ccc([N+](=O)[O-])s1)c1nc2cc(Br)ccc2s1
- GI50 [1]: 1640 nM
- TGI [1]: > 100 µM
- GI50 [2]: 399 nM
- TGI [2]: 2.47 µM
- GI50 [3]: 719 nM
- TGI [3]: > 100 µM
- GI50 [4]: 335 nM
- TGI [4]: > 35.5 µM
- GI50 [5]: 236 nM
- TGI [5]: 0.672 µM
- GI50 [6]: 218 nM
- TGI [6]: 1.01 µM
- GI50 [7]: 165 nM
- TGI [7]: 0.815 µM
- GI50 [8]: 286 nM
- TGI [8]: 0.845 µM
- GI50 [9]: 171 nM
- TGI [9]: 0.395 µM
- GI50 [10]: 0.206 µM
- TGI [10]: 0.539 µM

Structure (SMILES): NCC(=O)NC(CO)C(=O)O (stereo not drawn)
- TGI [1]: > 100 µM
- TGI [2]: > 100 µM
- TGI [3]: > 100 µM
- TGI [4]: > 100 µM
- TGI [5]: > 100 µM
- TGI [6]: > 100 µM
- TGI [7]: > 100 µM
- TGI [8]: > 100 µM
- TGI [9]: > 100 µM
- TGI [10]: > 100 µM

Structure (SMILES): Cc1nc2sc(C(=O)Nc3cccc(Cl)c3C)c(N)c2cc1C(=O)c1ccccc1
- GI50 [1]: 229 nM
- TGI [1]: > 50 µM
- GI50 [2]: 225 nM
- TGI [2]: > 50 µM
- GI50 [3]: 524 nM
- TGI [3]: > 50 µM
- GI50 [4]: 254 nM
- TGI [4]: > 50 µM
- GI50 [5]: 329 nM
- TGI [5]: > 50 µM
- GI50 [6]: 214 nM
- TGI [6]: > 50 µM
- GI50 [7]: 355 nM
- TGI [7]: > 13.6 µM
- GI50 [8]: 198 nM
- TGI [8]: 10.3 µM
- GI50 [9]: 331 nM
- TGI [9]: > 50 µM
- GI50 [10]: 0.205 µM
